What was measured:
Hydrophobicity (log P) = type: physicochemical
α1β3(N265M)γ2 GABAARs = biological target: T1, α1β3(N265M)γ2 GABAARs (UniProt P28472+P62813, N290M); experiment: Two-electrode voltage clamp of α1β3(N265M)γ2 GABAAR-expressing oocytes; type: cell-based; details: 1 μM trans-MPC088 with 3 μM GABA (~EC2)
T1 construct: expressed in transfected cells; host or cells: Xenopus oocytes
Method: The activity of trans-dominant MPC088 was also tested at receptors containing the β-subunit substitution N265M, a mutation that markedly reduces the action of propofol both in vitro and in vivo (Jurd et al. (2003); Siegwart et al. (2002)). […] For each receptor type, illustrated responses are representative data obtained from a single oocyte.

[1] = biological target: T2, GABAAR subtype that consists of a pentameric assembly of p1 subunits (Homo sapiens, UniProt P24046); experiment: Oocytes expressing the GABAAR subtype of p1 subunits; type: cell-based
T2 construct: expressed in transfected cells; host or cells: Xenopus oocytes

[2] = system: GABAARs of retinal ganglion cells; experiment: Whole-cell patch clamp of isolated retinal ganglion cells; type: cell-based, rat; details: for peak amplitude of direct response relative to response to 200 μM GABA: alone
Method: To test whether native neuronal GABAARs respond to MPC088, retinal ganglion cells (RGCs), a cell type known to abundantly express GABAARs (Ishida et al. (1988); Fischer et al. (1998); Wässle et al. (1998); Rotolo et al. (2003)), were examined. […] The cis-dominant preparation was obtained by pre-treating trans-dominant MPC088 with UV light for 5 min.
Inset: Aggregate data for direct activation by MPC088.
Experiments were conducted on enzymatically dissociated ganglion cells obtained from adult Sprague-Dawley rats (male and female, 6-16 weeks of age) (Charles River Laboratories, Wilmington, Mass.). Procedures for euthanasia, isolation of the retina, and the dissociation of retinal cells were as described previously (Ramsey et al. (2007) except that the period of retinal cell dissociation was shortened from 40 min to 20 min. Isolated ganglion cells were identified on the basis of their morphological appearance and the presence of a large voltage-gated sodium current. Whole-cell patch-clamp techniques similar to those described (Ramsey et al. (2007)) were used to record membrane current responses to test agents. The patch pipette with a resistance of 8-12 MΩ was pulled in two stages using a micro-electrode puller (Model PP830, Narishige Group, Tokyo, Japan). The pipette was filled with an intracellular solution containing 95 mM CsCH3SO3, 20 mM TEA-Cl, 10 mM glutamic acid, 1 mM BAPTA, 10 mM HEPES, 8 mM phosphocreatine di(tris), 1 mM MgATP and 0.2 mM Na2GTP; pH adjusted to 7.2 with CsOH. Cells were clamped at 0 mV (Axopatch 200B amplifier; Axon Instruments), and experimental runs were controlled by pCLAMP system software (Axon Instruments). Electrophysiological data were obtained in response to test compounds dissolved in physiological saline (Ringer solution) that consisted of 135 mM NaCl, 5 mM KCl, 2 mM CaCl2, 2 mM MgCl2, 10 mM glucose, and 5 mM HEPES, pH 7.4. Supplementation of aqueous test solutions with MPC088 was carried out by adding an aliquot of a stock solution containing the compound dissolved in dimethyl sulfoxide (DMSO). In all experiments, the amount of carrier DMSO present in the applied test solution was <1% (v/v). Test solutions were delivered from separate reservoirs by a multi-channel perfusion system. The same UV-LED used in the oocyte experiments was used for UV illumination of MPC088-supplemented test solutions. For preparation of cis-dominant MPC088, the test solution of initially trans-dominant compound underwent a 5-min UV illumination prior to its placement in the perfusion reservoir. All preparative procedures were performed in the dark, and the reservoirs and perfusion lines were light-protected with aluminum foil. As in the oocyte experiments, data were analyzed with Clampfit and plotted with Origin. Unless otherwise stated, numerical data from replicate experiments are presented as mean±SD, and all statistical analyses of data obtained from oocytes and from retinal ganglion cells employed a two-sample t-test.

[3] = system: GABAARs of cerebellar PNs; experiment: Test for direct agonist activity on Purkinje neurons (recirculating MPC088, no exogenous GABA); type: cell-based, mouse
Method: To test for direct agonist activity of MPC088 on PNs, cerebellar slices were perfused with recirculating 30 μM MPC088 (the maximal MPC088 concentration that could be reliably maintained solubilized in bicarbonate-buffered solution). MPC088 was converted to cis-dominant form by a 2-min exposure to UV light (LED, 365 nm/160 mW, Mouser, Inc., Mansfield, Tex.; LED driver, 700 mA BuckPuck DC Driver, Quadica Developments, Inc., Brantford, Ontario, Canada), before its dilution into the recirculating external solution. The same LED was then used to continuously UV-illuminate the recirculating solution for the duration of the experiment. Whole-cell voltage clamp recordings were obtained from PNs and determined the change in membrane current produced by alternating blue and UV illumination of the slice, as in the FIG. 40 experiments. […] The temporal sequence of illumination differed among the experiments (e.g., only the cell in a received multiple blue/UV exposures), but the data plotted are the amplitudes from the blue to UV transition (in the case of the cell in a, this is the blue/UV transition from the first of the three exposures). Yellow-filled data points indicate results from the experiment in a. Each data point is the average obtained from 4-10 consecutive recordings. […] Error bars represent the SEM (FIG. 42b).

- logP (Hydrophobicity (log P)): > 6
- response enhancement (α1β3(N265M)γ2 GABAARs): 2.9±0.8 fold
SMILES: CC(C)c1cc(CCCC(=O)NCc2ccc(/N=N/c3ccc(C(=O)NCCN)cc3)cc2)cc(C(C)C)c1O [MPC088, (E)-N-(2-Aminoethyl)-4-((4-((4-(4-hydroxy-3,5-diisopropylphenyl)butanamido)methyl)phenyl)diazenyl)benzamide]
- potentiating and direct agonist activity [1]: lacked both potentiating and direct agonist activity
- potentiation of the response elicited by 2 μM GABA ([2]; 10 μM trans-dominant): approximately 5 fold
- peak amplitude of direct response relative to response to 200 μM GABA ([2]; 30 μM trans-dominant): 5%
- peak amplitude of direct response relative to response to 200 μM GABA ([2]; 60 μM trans-dominant): 43±9%
- reduction of agonist activity by UV pre-treatment ([2]; 60 μM, UV pre-treated (cis-dominant) vs trans-dominant): 88±6%
- average light-evoked current change ([3]; 30 μM recirculating, blue/UV illumination, subset of 28 of 44 cells with change >18 pA): 80±13 pA
- mode of action in cerebellar tissue ([3]; concentrations comparable to or lower than 30 μM): modulatory (endogenous GABA-dependent) rather than agonistic

Reference: patent US9399145B2, “Nanoscale neuromodulating platform for retina neuron activation apparatus and method” (The Board of Trustees of the University of Illinois, priority 2005, dated 2016)
